# Data: patent US20100048564A1, “FUSED BICYCLIC HETEROARYL DERIVATIVE” (DAIICHI SANKYO COMPANY, LIMITED, priority 2007, published 2010)
# Like-named read-outs stand apart in the source and are kept apart here.
# How the values were obtained:
# [1] = system: KK mice; assay: Hypoglycemic effect in diabetic KK mice (Test Example 1); format: in vivo; conditions: Mus musculus, po, 72 h; male KK mice, diet admixture containing 0.03% of the compound, 3 days, plasma glucose vs control group; read-out: Hypoglycemic rate (%)
# From the text: Six-week-old male KK mice were purchased from CLEA Japan, Inc. and then were fed until 15 to 20 weeks old to develop diabetes. The mice were individually fed during the adaptation period and the test period, and water and feed (FR2, Funabashi Farm) were freely ingested.
# At the start of the experiment, after body weight measurement, blood was collected from the tail vein of the mice into a heparin-coated glass tube and centrifuged, and then plasma was separated. The glucose level in the plasma was measured by Glucoloader GXT (A&T Corp.), and individuals having a plasma glucose level of about 350 mg/dl or more were selected. The mice were grouped, each group having 3 to 4 mice, to make the average body weight and the average plasma glucose level similar. Each compound was administered to a compound group with a diet admixture containing 0.03% of the compound. A separate group in which the mice were fed only with diet was a control group.
# The experiment period (drug administration period) was three days. The grouping day was the 0th day. On the 3rd day, the body weight was measured and blood was collected from the tail vein to measure the plasma glucose level.
# The hypoglycemic rate was determined by the following formula.
# Hypoglycemic rate=[(Control group blood glucose level−Compound-administered group blood glucose level)/Control group blood glucose level]×100
# [2] = target: T1, human PPARγ2 (Homo sapiens, UniProt P37231); assay: Evaluation of PPARγ modulator activity, PPRE luciferase reporter in MG63 cells (Test Example 2); format: cell-based; conditions: for Emax: MG-63; for IC50: in the presence of Compound A, concentration representing (100−Imax)/2; for Imax (%): maximum inhibition of luciferase activity in the presence of Compound A
# T1 construct: expressed in transfected cells; host or cells: human osteosarcoma cell line MG63, transiently transfected with pSG5-hPPARγ and pGV-P2-PPRE
# T1 sequence (P37231 1-505): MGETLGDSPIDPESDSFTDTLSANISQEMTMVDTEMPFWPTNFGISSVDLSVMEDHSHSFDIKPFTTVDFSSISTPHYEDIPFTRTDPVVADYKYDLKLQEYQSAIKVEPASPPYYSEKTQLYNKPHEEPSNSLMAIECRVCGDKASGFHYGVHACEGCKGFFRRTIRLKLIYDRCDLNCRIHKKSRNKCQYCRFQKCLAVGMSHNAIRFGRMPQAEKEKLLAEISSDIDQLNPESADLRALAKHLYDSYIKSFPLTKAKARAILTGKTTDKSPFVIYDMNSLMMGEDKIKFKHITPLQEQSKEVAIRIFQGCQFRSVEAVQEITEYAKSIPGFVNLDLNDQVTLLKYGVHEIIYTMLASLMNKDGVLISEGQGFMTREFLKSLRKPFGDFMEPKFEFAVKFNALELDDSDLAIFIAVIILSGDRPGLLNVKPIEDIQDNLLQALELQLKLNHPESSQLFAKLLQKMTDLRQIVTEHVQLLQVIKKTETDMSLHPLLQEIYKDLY
# Method: In FIG. 3, the luciferase activity of the positive control group is defined as 100% and the luciferase activity of the control group is defined as 0%.
# Polymerase chain reaction (hereinafter “PCR”) primers were designed based on the human PPARγ2 gene sequence (GenBANK accession No. D83233). The recognition sequences for restriction enzyme BglII were added to upstream and downstream regions of a gene encoding human PPARγ2 protein, in which the recognition sequences were necessary for inserting the gene into the restriction site BamHI of the expression plasmid pSG5 (Stratagene) for the gene.
# The recognition sequence for restriction enzyme NheI was added to S2 and the recognition sequence for restriction enzyme XhoI was added to AS2 for insertion into the reporter plasmid pGV-P2 (Toyo Ink Mfg. Co., Ltd.).
# PCR was carried out using thermostable DNA polymerase Ex-Taq (Takara Shuzo Co., Ltd.) with a human adipose tissue-derived cDNA library (Clontech) as a template and the DNA oligomers S1 and AS1 obtained in Procedure 1 as PCR primers. […] A cycle was repeated 30 times consisting of incubation at 94° C. for one minute, incubation at 55° C. for 30 seconds and incubation at 72° C. for 30 seconds. The resulting DNA fragment of about 1500 bp was partially cleaved by restriction enzyme BglII and inserted into the restriction site BamHI of pSG5 to obtain a human PPARγ expression plasmid pSG5-hPPARγ.
# A vector pGV-P2 digest was prepared by digestion with restriction enzymes NheI and XhoI and purification by 1.0% agarose gel electrophoresis. The DNA oligomers S2 and AS2 obtained in Procedure 2 were mixed, incubated in a hot water bath at 94° C. for one minute, and then incubated at 25° C. for one hour to form a double-stranded DNA with S2 and AS2 annealed. Thereafter, the terminals of the double-stranded DNA were phosphorylated using DNA polynucleotide kinase (Toyobo Co., Ltd.) and then ligated to the previously prepared pGV-P2 digest using the restriction sites NheI and XhoI to obtain a reporter plasmid pGV-P2-PPRE having a PPAR response sequence.
# The gene was transiently transferred to the human osteosarcoma cell line MG63, and then cells were harvested.
# Thereafter, DMSO diluted 20-fold with 10% α-MEM was added to the control group and the positive control group at 5 μl/well. 10% α-MEM was added to the test compound-added group at 95 μl/well. Thereafter, the test compound diluted to various concentrations with DMSO was diluted 20-fold with 10% α-MEM; this was added to the test compound-added group at 5 μl/well.
# Thereafter, DMSO was diluted 20-fold with 10% α-MEM; this was added to the control group and the positive control group at 5 μl/well. […] Thereafter, the test compound diluted to various concentrations with DMSO was diluted 20-fold with 10% α-MEM; this was added to the test compound-added group at 5 μl/well.
# The cells prepared in Procedures 6 and 7 were cultured for 24 hours and then the medium was removed. […] The mixture was left to stand at room temperature for about 10 minutes and then stirred with a micromixer (TAITEC E-36). The luciferase activity was measured using Analyst (Molecular Devices) and a dose-dependent curve was drawn.
# The IC50, Imax, EC50 and Emax of the test compound to be determined are defined as follows.
# Here, the concentration of the test compound representing Emax/2 is calculated as EC50. The concentration of the test compound representing (100−Imax)/2 is calculated as IC50. The IC50 and EC50 calculated in this manner were used for evaluating the PPARγ modulator activity.
# [3] = maximum luciferase activity by test compound alone, positive control (Compound A) 100%, control 0%, read-out: Emax (%)
# [4] = MG63 cells, luciferase activity
# [5] = test compound alone, concentration representing Emax/2, MG63 cells, luciferase activity, read-out: EC50
SMILES,"Emax [2, 3]","IC50 [2, 4]",Imax (%) [2],"EC50 [2, 5]",inhibition in vivo at 0.03 % in diet [1],EC50 [2],Emax [2]
"Cl.Cn1c(COc2cccc(C(=O)O)c2)nc2ccc(Oc3ccc(Cl)c(F)c3)cc21 [Example 10, 3-{[6-(4-Chloro-3-fluorophenoxy)-1-methyl-1H-benzimidazol-2-yl]methoxy}benzoic acid hydrochloride]",42%,33.2 nM,−50%,2.06 nM,35%,,
"Cl.Cn1c(COc2cccc(C(=O)O)c2)nc2ccc(Oc3ccc(F)c(Cl)c3)cc21 [Example 12, 3-{[6-(3-Chloro-4-fluorophenoxy)-1-methyl-1H-benzimidazol-2-yl]methoxy}benzoic acid hydrochloride]",42%,40.4 nM,−43%,2.34 nM,30%,,
"Cl.Cn1c(COc2cccc(C(=O)O)c2)nc2ccc(Oc3ccccc3)cc21 [Example 14, 3-[(1-Methyl-6-phenoxy-1H-benzimidazol-2-yl)methoxy]benzoic acid hydrochloride]",,,−35%,,33%,51.7 nM,54%
"Cl.Cl.Cn1c(COc2cccc(C(=O)O)c2)nc2ccc(Oc3ccccc3)nc21 [Example 16, 3-[(3-Methyl-5-phenoxy-3H-imidazo[4,5-b]pyridin-2-yl)methoxy]benzoic acid dihydrochloride]",46%,402 nM,−44%,26.4 nM,60%,,

# Continued by falling IC50 [2, 4], values first:
"Emax [2, 3]","IC50 [2, 4]",Imax (%) [2],"EC50 [2, 5]",SMILES,inhibition in vivo at 0.03 % in diet [1],EC50 [2],Emax [2]
39%,73.3 nM,−34%,7.72 nM,"Cl.Cn1c(COc2cccc(C(=O)O)c2)nc2ccc(Oc3cccc(F)c3)cc21 [Example 8, 3-{[6-(3-Fluorophenoxy)-1-methyl-1H-benzimidazol-2-yl]methoxy}benzoic acid hydrochloride]",29%,,
70%,56.1 nM,−44%,3.28 nM,"Cc1cc(Oc2ccc3nc(COc4cccc(C(=O)O)c4)n(C)c3c2)cc(C)c1N.Cl.Cl [Example 2, 3-{[6-(4-Amino-3,5-dimethylphenoxy)-1-methyl-1H-benzimidazol-2-yl]methoxy}benzoic acid dihydrochloride]",37%,,
